Here are results for 55 molecules from patent US9505781B2, “Compositions comprising thienopyrimidine and thienopyridine compounds and methods of use thereof” (The Regents of the University of Michigan, priority 2013, dated 2016).

The target of the assay is T1, menin-MLL interaction (Homo sapiens, UniProt O00255).
T1 sequence (O00255 1-610): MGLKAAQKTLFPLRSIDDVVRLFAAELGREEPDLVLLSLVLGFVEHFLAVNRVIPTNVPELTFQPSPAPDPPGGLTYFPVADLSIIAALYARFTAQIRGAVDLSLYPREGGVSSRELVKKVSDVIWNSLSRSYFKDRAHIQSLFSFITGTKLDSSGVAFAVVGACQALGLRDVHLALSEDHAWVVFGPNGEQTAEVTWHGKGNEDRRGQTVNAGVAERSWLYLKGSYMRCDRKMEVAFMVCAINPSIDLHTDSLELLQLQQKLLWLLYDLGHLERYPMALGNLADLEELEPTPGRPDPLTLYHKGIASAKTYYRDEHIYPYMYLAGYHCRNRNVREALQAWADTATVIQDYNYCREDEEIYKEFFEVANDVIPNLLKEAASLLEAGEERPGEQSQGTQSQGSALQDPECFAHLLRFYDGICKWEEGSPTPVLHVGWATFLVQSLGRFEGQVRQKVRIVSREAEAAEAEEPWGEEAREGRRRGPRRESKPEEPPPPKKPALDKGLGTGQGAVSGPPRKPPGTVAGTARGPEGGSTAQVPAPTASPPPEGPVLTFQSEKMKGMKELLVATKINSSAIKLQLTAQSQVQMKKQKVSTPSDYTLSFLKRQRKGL
The experiment in a line: biochemical.
From the text: Compounds that inhibit the interaction decrease the fluorescence anisotropy which is being used as a read-out for compound screening and for IC50 determination.
Turning to `NS(=O)(=O)Cc1ccc(CC(=O)N2CCN(C3=NC=NC4SC(CC(F)(F)F)=CC34)CC2)c(Cl)c1` (stereo not shown) [Compound 286], the IC50 (in general, the point on the concentration scale where inhibition reaches its midpoint) was less than 100 nM.
Next, `O=C(Cc1ccc(NS(=O)(=O)CC(F)(F)F)cc1Cl)N1CCN(C2=NC=NC3SC(CC(F)(F)F)=CC23)CC1` (stereo not shown) [Compound 287]: 500 to 2000 nM; `Cc1c(CN2CC[C@@H](Nc3ncnc4sc(CC(F)(F)F)cc34)[C@H](NCCc3ccccc3)C2)ccc2c1cc(C#N)n2CC(N)=O` [Compound 288]: less than 100 nM; `N#Cc1cc2cc(CN3CCC(Nc4ncnc5sc(CC(F)(F)F)cc45)C(NCc4cccc(F)c4)C3)ccc2[nH]1` (stereo not shown) [Compound 289]: less than 100 nM.
With `N#Cc1cc2c(CO)c(CN3CCC(Nc4ncnc5sc(CC(F)(F)F)cc45)CC3)ccc2[nH]1` [Compound 290], the IC50 was less than 100 nM.
The same measure for `N#Cc1cc2cc(CN3CCC(Nc4ncnc5sc(CC(F)(F)F)cc45)CC3)ccc2n1CC(=O)NC1CC1` [Compound 291]: less than 100 nM; for `CC(C)OC(CO)Cn1c(C#N)cc2cc(CN3CCC(Nc4ncnc5sc(CC(F)(F)F)cc45)CC3)ccc21` (stereo not shown) [Compound 292]: less than 100 nM; for `N#Cc1cc2c(C3CC3)c(CN3CCC(Nc4ncnc5sc(CC(F)(F)F)cc45)CC3)ccc2[nH]1` [Compound 293]: less than 100 nM.
Next, `N#Cc1cc2c(CN)c(CN3CCC(Nc4ncnc5sc(CC(F)(F)F)cc45)CC3)ccc2[nH]1` [Compound 294]: less than 100 nM.
Next, `CCc1c(CN2CCC(Nc3ncnc4sc(CC(F)(F)F)cc34)CC2)ccc2[nH]c(C#N)cc12` [Compound 295]: less than 100 nM; `N#Cc1cc2c(CCO)c(CN3CCC(Nc4ncnc5sc(CC(F)(F)F)cc45)CC3)ccc2[nH]1` [Compound 296]: less than 100 nM; `N#Cc1cc2cc(CN3CCC(Nc4ncnc5sc(CC(F)(F)F)cc45)CC3)ccc2n1CC(CO)OC(F)F` (stereo not shown) [Compound 297]: less than 100 nM.
As to `N#Cc1cc2c(Br)c(CN3CCC(Nc4ncnc5sc(CC(F)(F)F)cc45)CC3)ccc2[nH]1` [Compound 298], the 50% inhibitory concentration (IC50) is less than 100 nM.
Next, `Cc1c(CN2CCC(Nc3ncnc4sc(CC(F)(F)F)cc34)CC2)ccc2c1cc(C#N)n2CCO` [Compound 299]: less than 100 nM; `Cc1c(CN2CCC(Nc3ncnc4sc(CC(F)(F)F)cc34)CC2)ccc2c1cc(C#N)n2CC(O)CO` (stereo not shown) [Compound 300]: less than 100 nM; `Cc1c(CN2CCC(Nc3ncnc4sc(CC(F)(F)F)cc34)CC2)ccc2c1cc(C#N)n2CC(N)=O` [Compound 301]: less than 100 nM.
The same measure for `Cc1c(CN2CCC(Nc3ncnc4sc(CC(F)(F)F)cc34)CC2)ccc2c1cc(C#N)n2CC(CO)OC(C)C` (stereo not shown) [Compound 302]: less than 100 nM; for `Cc1c(CN2CCC(Nc3ncnc4sc(CC(F)(F)F)cc34)CC2)ccc2c1cc(C#N)n2Cc1cn(C)nn1` [Compound 303]: less than 100 nM; for `Cc1c(CN2CCC(Nc3ncnc4sc(CC(F)(F)F)cc34)CC2)ccc2c1cc(C#N)n2CCn1cncn1` [Compound 304]: less than 100 nM.
The same measure for `N#Cc1cc2c(C(F)F)c(CN3CCC(Nc4ncnc5sc(CC(F)(F)F)cc45)CC3)ccc2[nH]1` [Compound 305]: less than 100 nM; for `C=C(Br)Cn1c(C#N)cc2cc(CN3CCC(Nc4ncnc5sc(CC(F)(F)F)cc45)CC3)ccc21` [Compound 306]: less than 100 nM.
With `N#Cc1cc2c(Br)c(CN3CCC(Nc4ncnc5sc(CC(F)(F)F)cc45)CC3)ccc2n1CC(N)=O` [Compound 307], the IC50 was less than 100 nM.
`CCCCC(O)(CO)Cn1c(C#N)cc2cc(CN3CCC(Nc4ncnc5sc(CC(F)(F)F)cc45)CC3)ccc21` (stereo not shown) [Compound 308] gave an IC50 of less than 100 nM.
Next, `Cc1c(CN2CCC(Nc3ncnc4sc(CC(F)(F)F)cc34)CC2)ccc2c1cc(C#N)n2Cc1cn[nH]c1` [Compound 309, 1-((1H-pyrazol-4-yl)methyl)-4-methyl-5-((4-((6-(2,2,2-trifluoroethyl)thieno[2,3-d]pyrimidin-4-yl)amino)piperidin-1-yl)methyl)-1H-indole-2-carbonitrile]: less than 100 nM.
Next, `N#Cc1cc2c(C(F)F)c(CN3CCC(Nc4ncnc5sc(CC(F)(F)F)cc45)CC3)ccc2n1CC(N)=O` [Compound 310]: less than 100 nM.
The same measure for `Cc1c(CN2CCC(Nc3ncnc4sc(CC(F)(F)F)cc34)CC2)ccc2c1cc(C#N)n2Cc1c[nH]nn1` [Compound 311]: less than 100 nM.
In the case of `N#Cc1cc2cc(CN3CCC(Nc4ncnc5sc(CC(F)(F)F)cc45)CC3)ccc2n1Cc1cc(OCC2CC2)n[nH]1` [Compound 312], the IC50 is less than 100 nM.
With `COCCOCCn1cc(Cn2c(C#N)cc3c(C)c(CN4CCC(Nc5ncnc6sc(CC(F)(F)F)cc56)CC4)ccc32)cn1` [Compound 313], the IC50 was less than 100 nM.
`COCCOCC(O)(CO)Cn1c(C#N)cc2cc(CN3CCC(Nc4ncnc5sc(CC(F)(F)F)cc45)CC3)ccc21` (stereo not shown) [Compound 314] yielded an IC50 of less than 100 nM.
Next, `COCCOCC(O)(CO)Cn1c(C#N)cc2c(C)c(CN3CCC(Nc4ncnc5sc(CC(F)(F)F)cc45)CC3)ccc21` (stereo not shown) [Compound 315]: less than 100 nM.
With `COCCOC(CO)Cn1c(C#N)cc2cc(CN3CCC(Nc4ncnc5sc(CC(F)(F)F)cc45)CC3)ccc21` (stereo not shown) [Compound 316], the IC50 is less than 100 nM.
Turning to `N#Cc1cc2cc(CN3CCC(Nc4ncnc5sc(CC(F)(F)F)cc45)CC3)ccc2n1CC(O)(CO)COCC1CCCCC1` (stereo not shown) [Compound 317], the IC50 is less than 100 nM.
The same measure for `N#Cc1cc2cc(CN3CCC(Nc4ncnc5sc(CC(F)(F)F)cc45)CC3)ccc2n1Cc1cnn(CCOCC2CC2)c1` [Compound 318]: less than 100 nM; for `COCCOCCOC(CO)Cn1c(C#N)cc2cc(CN3CCC(Nc4ncnc5sc(CC(F)(F)F)cc45)CC3)ccc21` (stereo not shown) [Compound 319]: less than 100 nM.
Consider `N#Cc1cc2cc(CN3CCC(Nc4ncnc5sc(CC(F)(F)F)cc45)CC3)ccc2n1CC(CO)OCC1CCCCC1` (stereo not shown) [Compound 320], for which the IC50 was less than 100 nM.
Next, `N#Cc1cc2c(CO)c(CN3CCC(Nc4ncnc5sc(CC(F)(F)F)cc45)CC3)ccc2n1CCO` [Compound 321]: less than 100 nM; `Cc1nnc(Cn2c(C#N)cc3c(C)c(CN4CCC(Nc5ncnc6sc(CC(F)(F)F)cc56)CC4)ccc32)s1` [Compound 322]: less than 100 nM; `Cc1ncc(Cn2c(C#N)cc3c(C)c(CN4CCC(Nc5ncnc6sc(CC(F)(F)F)cc56)CC4)ccc32)s1` [Compound 323]: less than 100 nM.
Next, `N#Cc1cc2c(CO)c(CN3CCC(Nc4ncnc5sc(CC(F)(F)F)cc45)CC3)ccc2n1CC(N)=O` [Compound 325]: less than 100 nM; `Cc1c(CN2CCC(Nc3ncnc4sc(CC(F)(F)F)cc34)CC2)ccc2c1cc(C#N)n2Cc1nccs1` [Compound 326]: less than 100 nM; `Cc1nn[nH]c1Cn1c(C#N)cc2c(C)c(CN3CCC(Nc4ncnc5sc(CC(F)(F)F)cc45)CC3)ccc21` [Compound 327]: less than 100 nM.
Molecule `Cc1c(CN2CCC(Nc3ncnc4sc(CC(F)(F)F)cc34)CC2)ccc2c1cc(C#N)n2CCc1cccnc1` [Compound 328] came in with an IC50 of less than 100 nM.
The same measure for `Cc1c(CN2CCC(Nc3ncnc4sc(CC(F)(F)F)cc34)CC2)ccc2c1cc(C#N)n2CCN1CCCCC1` [Compound 329]: less than 100 nM.
The same measure for `Cc1cn[nH]c1Cn1c(C#N)cc2c(C)c(CN3CCC(Nc4ncnc5sc(CC(F)(F)F)cc45)CC3)ccc21` [Compound 330]: less than 100 nM; for `Cc1c(CN2CCC(Nc3ncnc4sc(CC(F)(F)F)cc34)CC2)ccc2c1cc(C#N)n2Cc1cc(O)n[nH]1` [Compound 331]: less than 100 nM.
Next, `Cc1c(CN2CCC(Nc3ncnc4sc(CC(F)(F)F)cc34)CC2)ccc2c1cc(C#N)n2Cc1ncc[nH]1` [Compound 332]: less than 100 nM; `N#Cc1cc2cc(CN3CCC(Nc4ncnc5sc(CC(F)(F)F)cc45)CC3)ccc2n1CC(O)(CO)CN1CCOCC1` (stereo not shown) [Compound 333]: less than 100 nM; `Cc1nnc(Cn2c(C#N)cc3c(C)c(CN4CCC(Nc5ncnc6sc(CC(F)(F)F)cc56)CC4)ccc32)o1` [Compound 334]: less than 100 nM.
`N#Cc1cc2c(CO)c(CN3CCC(Nc4ncnc5sc(CC(F)(F)F)cc45)CC3)ccc2n1Cc1cn[nH]c1` [Compound 335] had an IC50 of less than 100 nM.
The same measure for `CCCCC(O)(CO)Cn1c(C#N)cc2c(C)c(CN3CCC(Nc4ncnc5sc(CC(F)(F)F)cc45)CC3)ccc21` (stereo not shown) [Compound 338]: less than 100 nM.
The same measure for `Cc1c(CN2CCC(Nc3ncnc4sc(CC(F)(F)F)cc34)CC2)ccc2c1cc(C#N)n2CCN1CCN(C(=O)CCC2CCCCC2)CC1` [Compound 339]: less than 100 nM; for `Cc1c(CN2CCC(Nc3ncnc4sc(CC(F)(F)F)cc34)CC2)ccc2c1cc(C#N)n2CCN1CCN(C(=O)Cc2ccccc2)CC1` [Compound 340]: less than 100 nM.
The same measure for `Cc1c(CN2CCC(Nc3ncnc4sc(CC(F)(F)F)cc34)CC2)ccc2c1cc(C#N)n2CCN1CCN(C(=O)CCc2ccccc2)CC1` [Compound 341]: less than 100 nM.
As for `Cc1c(CN2CCC(Nc3ncnc4sc(CC(F)(F)F)cc34)CC2)ccc2c1cc(C#N)n2CCN1CCN(C(=O)CCC(F)(F)F)CC1` [Compound 342], the half-maximal inhibitory concentration (IC50) is less than 100 nM.
The same measure for `Cc1c(CN2CCC(Nc3ncnc4sc(CC(F)(F)F)cc34)CC2)ccc2c1cc(C#N)n2CCN1CCN(C(=O)CC2CCCCC2)CC1` [Compound 343]: less than 100 nM.
